This is an account of results in patent US20240018145A1, “[…]-DEPENDENT EN[…] TREATING OR […]” (priority 2020, published 2024).

Usually EC50 stands for the concentration that produces a half-maximal response.

Read-outs that look alike come from different tables or passages of the source.

The assay relates to FLU A (PR/8/34). In words: Flu A Neuraminidase Antiviral Assay. Type of assay: cell-based.

As for `CN1C(=O)c2c(O)c(=O)ccn2N2C1CC[C@H]1CCc3ccccc3[C@H]12` (stereo partly drawn) [Compound 150, Cis-16-hydroxy-2-methyl-2,2a,3,4,4a,5,6,10b-octahydrobenzo[h]pyrido[1′,2′:1,6][1,2,4]triazino[2,3-a]quinoline-1,15-dione], the EC50 (MDCK, 48 h) came to 69.6 nM. In other words, the double-digit nanomolar range.
`CN1C(=O)c2c(O)c(=O)ccn2N2C(c3ccccc3)C(CCC(F)(F)F)CCC12C` (single isomer, unassigned) [Compound 78A, 7-hydroxy-4a,5-dimethyl-1-phenyl-2-(3,3,3-trifluoropropyl)-1,2,3,4,4a,5-hexahydrodipyrido[1,2-b:2′,1′-f][1,2,4]triazine-6,8-dione] displayed a concentration giving a half-maximal response (EC50) greater than 810 nM.
The molecule `CCOC1CCC2N(C)C(=O)c3c(O)c(=O)ccn3N2C1c1ccccc1` (stereo not shown) [Compound 152A, 2-ethoxy-7-hydroxy-5-methyl-1-phenyl-1,2,3,4,4a,5-hexahydrodipyrido[1,2-b:2′,1′-f][1,2,4]triazine-6,8-dione] gave an EC50 of 4300 nM.
Same read-out and setting: then `CC1(c2ccccc2)CCCC2N(CCC(F)(F)F)C(=O)c3c(O)c(=O)ccn3N21` (single isomer, unassigned) [Compound 38B, 7-hydroxy-1-methyl-1-phenyl-5-(3,3,3-trifluoropropyl)-1,2,3,4,4a,5-hexahydrodipyrido[1,2-b:2′,1′-f][1,2,4]triazine-6,8-dione], with 5.8 nM.
In turn, `CN1C(=O)c2c(O)c(=O)ccn2N2C(c3cccc(OC(F)F)c3)CCCC12` (single isomer, unassigned) [Compound 12A, 1-(3-(difluoromethoxy)phenyl)-7-hydroxy-5-methyl-1,2,3,4,4a,5-hexahydrodipyrido[1,2-b:2′,1′-f][1,2,4]triazine-6,8-dione] showed an EC50 (MDCK, 48 h) greater than 8100 nM.
`CN1C(=O)c2c(O)c(=O)ccn2N2C(c3ccccc3)C3CCC(C3)C12` (single isomer, unassigned) [Compound 9A, 4-hydroxy-6-methyl-11-phenyl-6a,7,8,9,10,11-hexahydro-3H-7,10-methanopyrido[1′,2′:1,6][1,2,4]triazino[2,3-a]azepine-3,5(6H)-dione] registered an EC50 of 6210 nM.
Still for that read-out and setting: to `Cc1cccc(C2(C)CCCC3N(CC(F)F)C(=O)c4c(O)c(=O)ccn4N32)n1` (single isomer, unassigned) [Compound 54B, 5-(2,2-difluoroethyl)-7-hydroxy-1-methyl-1-(6-methylpyridin-2-yl)-1,2,3,4,4a,5-hexahydrodipyrido[1,2-b:2′,1′-f][1,2,4]triazine-6,8-dione] belongs 24.9 nM; to `CN1C(=O)c2c(O)c(=O)ccn2N2C(c3ccccc3)C(C3(C(F)(F)F)CC3)CCC12` (single isomer, unassigned) [Compound 108A, 7-hydroxy-5-methyl-1-phenyl-2-(1-(trifluoromethyl)cyclopropyl)-1,2,3,4,4a,5-hexahydrodipyrido[1,2-b:2′,1′-f][1,2,4]triazine-6,8-dione], 5420 nM; to `CN1C(=O)c2c(O)c(=O)ccn2N2C(c3c(F)cccc3F)CCCC12` (single isomer, unassigned) [Compound 7B, 1-(2,6-difluorophenyl)-7-hydroxy-5-methyl-1,2,3,4,4a,5-hexahydrodipyrido[1,2-b:2′,1′-f][1,2,4]triazine-6,8-dione], 256 nM.
Still for that read-out and setting: to `Cc1cc(=O)c(O)c2n1N1C(c3ccccc3)C(CC(F)(F)F)CCC1N(C)C2=O` (single isomer, unassigned) [Compound 132D, 7-hydroxy-5,10-dimethyl-1-phenyl-2-(2,2,2-trifluoroethyl)-1,2,3,4,4a,5-hexahydrodipyrido[1,2-b:2′,1′-f][1,2,4]triazine-6,8-dione] belongs greater than 810 nM.
For the molecule `CN1C(=O)c2c(O)c(=O)ccn2N2C(c3ccccc3)C(CCC(F)F)CCC12` (single isomer, unassigned) [Compound 124A, 2-(3,3-difluoropropyl)-7-hydroxy-5-methyl-1-phenyl-1,2,3,4,4a,5-hexahydrodipyrido[1,2-b:2′,1′-f][1,2,4]triazine-6,8-dione], a half-maximal effect (EC50) was put at 871 nM. This lies in the sub-micromolar range.
The same measure, in the same setting: to `CC1(c2ncc(F)cc2F)CCCC2N(CC(F)F)C(=O)c3c(O)c(=O)ccn3N21` (single isomer, unassigned) [Compound 47A, 5-(2,2-difluoroethyl)-1-(3,5-difluoropyridin-2-yl)-7-hydroxy-1-methyl-1,2,3,4,4a,5-hexahydrodipyrido[1,2-b:2′,1′-f][1,2,4]triazine-6,8-dione] belongs 25.7 nM; to `Cc1cccc(F)c1C1C(CC(F)(F)F)CCC2N(C)C(=O)c3c(O)c(=O)ccn3N12` (single isomer, unassigned) [Compound 77B, 1-(2-fluoro-6-methylphenyl)-7-hydroxy-5-methyl-2-(2,2,2-trifluoroethyl)-1,2,3,4,4a,5-hexahydrodipyrido[1,2-b:2′,1′-f][1,2,4]triazine-6,8-dione], 3.2 nM.
For `CN1C(=O)c2c(O)c(=O)ccn2N2[C@H](c3ccccc3)[C@H](OCC(F)F)CC[C@@H]12` (single isomer, unassigned) [Compound 153B], the half-maximal effective concentration (EC50) turned out to be 94.4 nM.
On the same count and under the same terms, to `O=C1c2c(O)c(=O)ccn2N2C(c3ccccc3)CCCC2N1CC1CC1` (single isomer, unassigned) [Compound 56D, 5-(cyclopropylmethyl)-7-hydroxy-1-phenyl-1,2,3,4,4a,5-hexahydrodipyrido[1,2-b:2′,1′-f][1,2,4]triazine-6,8-dione] belongs 37.7 nM.
As for `CN1C(=O)c2c(O)c(=O)ccn2N2[C@H](c3ccccc3)[C@@H](n3cc(CO)nn3)CC[C@@H]12` [Compound 141, (1R,2S,4aS)-7-hydroxy-2-(4-(hydroxymethyl)-1H-1,2,3-triazol-1-yl)-5-methyl-1-phenyl-1,2,3,4,4a,5-hexahydrodipyrido[1,2-b:2′,1′-f][1,2,4]triazine-6,8-dione], the 50% effective concentration (EC50) (MDCK, 48 h) was greater than 8100 nM.
For `CC1(c2ccccc2)CCCC2N(CC3COC3)C(=O)c3c(O)c(=O)ccn3N21` (single isomer, unassigned) [Compound 40A, 7-hydroxy-1-methyl-5-(oxetan-3-ylmethyl)-1-phenyl-1,2,3,4,4a,5-hexahydrodipyrido[1,2-b:2′,1′-f][1,2,4]triazine-6,8-dione], a half-maximal effect (EC50) was put at 14.4 nM. That is a double-digit nanomolar value.
Same read-out and setting: to `CC1(c2ccccc2)CCCC2N(CC3CC(F)(F)C3)C(=O)c3c(O)c(=O)ccn3N21` (single isomer, unassigned) [Compound 45A, 5-((3,3-difluorocyclobutyl)methyl)-7-hydroxy-1-methyl-1-phenyl-1,2,3,4,4a,5-hexahydrodipyrido[1,2-b:2′,1′-f][1,2,4]triazine-6,8-dione] belongs greater than 8100 nM.
Molecule `CN1C(=O)c2c(O)c(=O)ccn2N2[C@H](c3ccccc3)[C@@H](N=[N+]=[N-])CC[C@@H]12` [Compound 139, (1R,2S,4aS)-2-azido-7-hydroxy-5-methyl-1-phenyl-1,2,3,4,4a,5-hexahydrodipyrido[1,2-b:2′,1′-f][1,2,4]triazine-6,8-dione] came in with a concentration for a half-maximal effect (EC50) (MDCK, 48 h) of 23.6 nM. In other words, the double-digit nanomolar range.
Turning to `Cc1cccnc1C1(C)CCCC2N(CC(F)(F)F)C(=O)c3c(O)c(=O)ccn3N21` (single isomer, unassigned) [Compound 44B, 7-hydroxy-1-methyl-1-(3-methylpyridin-2-yl)-5-(2,2,2-trifluoroethyl)-1,2,3,4,4a,5-hexahydrodipyrido[1,2-b:2′,1′-f][1,2,4]triazine-6,8-dione], the EC50 amounted to 15.2 nM. In other words, the double-digit nanomolar range.
Same read-out and setting: then `CCN1C(=O)c2c(O)c(=O)ccn2N2C(c3ccccc3C)C(CCC(F)F)CCC12` (single isomer, unassigned) [Compound 102A, 2-(3,3-difluoropropyl)-5-ethyl-7-hydroxy-1-(o-tolyl)-1,2,3,4,4a,5-hexahydrodipyrido[1,2-b:2′,1′-f][1,2,4]triazine-6,8-dione], with 2.9 nM; and `CCc1ccccc1C1C(CC(F)(F)F)CCC2N(C)C(=O)c3c(O)c(=O)ccn3N12` (single isomer, unassigned) [Compound 112B, 1-(2-ethylphenyl)-7-hydroxy-5-methyl-2-(2,2,2-trifluoroethyl)-1,2,3,4,4a,5-hexahydrodipyrido[1,2-b:2′,1′-f][1,2,4]triazine-6,8-dione], with 162 nM; and `Cc1ccccc1C1C(CC(F)(F)F)CCC2N(C)C(=O)c3c(O)c(=O)ccn3N12` (single isomer, unassigned) [Compound 120A, 7-hydroxy-5-methyl-1-(o-tolyl)-2-(2,2,2-trifluoroethyl)-1,2,3,4,4a,5-hexahydrodipyrido[1,2-b:2′,1′-f][1,2,4]triazine-6,8-dione], with 2720 nM.
On the same count and under the same terms, then `CN1C(=O)c2c(O)c(=O)ccn2N2C1CCCC2(C)c1cccc(OC(F)F)c1` (single isomer, unassigned) [Compound 51A, 1-(3-(difluoromethoxy)phenyl)-7-hydroxy-1,5-dimethyl-1,2,3,4,4a,5-hexahydrodipyrido[1,2-b:2′,1′-f][1,2,4]triazine-6,8-dione], with greater than 8100 nM.
On the same count and under the same terms, to `CN1C(=O)c2c(O)c(=O)ccn2C2C1CCCC2(O)c1ccccc1` (single isomer, unassigned) [Compound 165B, 1,7-dihydroxy-5-methyl-1-phenyl-1,3,4,4a,5,11a-hexahydro-2H-pyrido[1,2-a]quinoxaline-6,8-dione] belongs greater than 8100 nM; to `CCCC1CCC2N(CC)C(=O)c3c(O)c(=O)ccn3N2C1c1ccccc1F` (single isomer, unassigned) [Compound 96A, 5-ethyl-1-(2-fluorophenyl)-7-hydroxy-2-propyl-1,2,3,4,4a,5-hexahydrodipyrido[1,2-b:2′,1′-f][1,2,4]triazine-6,8-dione], greater than 810 nM.
Molecule `CN1C(=O)c2c(O)c(=O)ccn2N2[C@H](c3ccccc3)[C@H](OCC3CCC3)CC[C@@H]12` [Compound 160, (1R,2R,4aS)-2-(cyclobutylmethoxy)-7-hydroxy-5-methyl-1-phenyl-1,2,3,4,4a,5-hexahydrodipyrido[1,2-b:2′,1′-f][1,2,4]triazine-6,8-dione] had an EC50 (MDCK, 48 h) of 18.1 nM.
`CN1C(=O)c2c(O)c(=O)ccn2N2C(c3ccccc3C3CC3)C(CC(F)(F)F)CCC12` (single isomer, unassigned) [Compound 107B, 1-(2-cyclopropylphenyl)-7-hydroxy-5-methyl-2-(2,2,2-trifluoroethyl)-1,2,3,4,4a,5-hexahydrodipyrido[1,2-b:2′,1′-f][1,2,4]triazine-6,8-dione]: a half-maximal effect (EC50) was put at 14.4 nM.
